The source of these data is patent EP0495226B1, “3-Aryl-5-alkylthio-4H-1,2,4-triazoles for treatment of hyperreflexia due to spinal trauma” (priority 1990, dated 1992).

Like-named read-outs stand apart in the source and are kept apart here. Where only a bound is given, the exact number is not on record here.

In assay [1] the test system is strychnine-induced seizures. In words: animal or person. In kind it is in vivo, mice. The note with it: for ED50: Mus musculus, read-out: ED₅₀. The protocol: Groups of 10 to 20 male mice are administered one or more doses of test compound in an appropriate vehicle or, for comparison, the vehicle alone. At a selected time thereafter, strychnine sulfate, prepared as a solution in distilled water, is administered intraperitoneally at a dose of 2.7 mg/kg. […] Absence of tonic extension for greater than 15 minutes after strychnine administration is considered significant protection.

Assay [2] deals with heightened spontaneous hind limb movements. In words: Spontaneous hind limb reflex activity in spinally transected rats (hyperreflexia). Type of assay: in vivo. The note with it: for Integrated Activity, % of Control: ip, 30 minutes after dosing, spinally transected rats; for muscle spasticity: intraperitoneally. The protocol:
The effectiveness of the compounds of this invention for treating muscle spasticity resulting from spinal trauma was tested in rats with heightened spontaneous hind limb movements. Four to six weeks before testing, anesthetized rats were spinally transected at the mid-thoracic level, resulting in this form of spontaneous limb activity. 4-Methyl-3-phenyl-5-methylsulfonyl-4H-1,2,4-triazole or clonidine were given intraperitoneally, and after 30-minutes reflex activity was measured in treated animals and untreated controls by a computerized apparatus designed to record, integrate and analyze this activity. […]

With `CN1C(=O)CN=C(c2ccccc2)c2cc(Cl)ccc21` [Diazepam, reference compound], the ED50 in assay [1] (ip) was 1.2 mg/kg.
Compound `Clc1ccc2nsnc2c1NC1=NCCN1` [Tizanidine, reference compound] displayed a maximal protection in assay [1] (at 3.1 mg/kg i.p., doses of up to 50 mg/kg do not cause a greater effect, mice) of 60%.
With `CC[S+]([O-])c1nnc(-c2ccccc2)n1C` (stereo not drawn) [4-methyl-3-phenyl-5-ethylsulfinyl-4H-1,2,4-triazole], the ED50 was determined as 14.4 mg/kg in assay [1] (ip) and 8.1 mg/kg in assay [1] (po).
For `CCS(=O)(=O)c1nnc(-c2ccccc2)n1C` [4-methyl-3-phenyl-5-ethylsulfonyl-4H-1,2,4-triazole], the values for the ED50 in assay [1] (ip) and in assay [1] (po) were 19.3 mg/kg and 8.5 mg/kg, respectively.
Take `CCSc1nnc(-c2ccccc2F)n1C` [4-methyl-3-(2-fluorophenyl)-5-ethylthio-4H-1,2,4-triazole]: the ED50 in assay [1] (ip) amounted to 18.6 mg/kg; in assay [1] (po) it was 15.1 mg/kg.
For `NCC(CC(=O)O)c1ccc(Cl)cc1` (stereo not drawn) [baclofen, reference compound], the “antagonism of strychnine-induced seizures” value in assay [1] (dosage range of from 12.5 to 200 mg/kg i.p., mice) is listed as “over 50%”. In assay [1] (no dose (12.5 to 200 mg/kg i.p.) causes 100% protection, mice), this compound gave a protection of under 100%.
As for `Clc1cccc(Cl)c1N=C1NCCN1` [Clonidine, clonidine, reference compound], the entries for the “Integrated Activity, % of Control” value in assay [2] (3.1 µg/kg), in assay [2] (12.5 µg/kg) and in assay [2] (50.0 µg/kg) were 130.2 ± 43.9 % of Control, 50.4 ± 9.8 % of Control and 32.5 ± 9.5 % of Control, respectively. The muscle spasticity entry in assay [2] (rats treated with more than 3.1 µg/kg) is recorded as “substantial reduction”.
`Cn1c(-c2ccccc2)nnc1S(C)(=O)=O` [4-Methyl-3-phenyl-5-methylsulfonyl-4H-1,2,4-triazole]: the “Integrated Activity, % of Control” value is reported as 137 ± 10 % of Control in assay [2] (5.0 mg/kg), 42.9 ± 12.7 % of Control in assay [2] (10.0 mg/kg), 75.3 ± 19.3 % of Control in assay [2] (20.0 mg/kg) and 51.3 ± 11.9 % of Control in assay [2] (40.0 mg/kg). The muscle spasticity entry in assay [2] (rats treated with more than 5 mg/kg) is listed as “substantial reduction”. In addition, the ED50 in assay [1] (ip) is 12.8 mg/kg; in assay [1] (po), 7.3 mg/kg.
